ChEMBL document CHEMBL4673291, “Synthesis and antiproliferative evaluation of novel 8-cyclopentyl-7,8-dihydropteridin-6(5H)-one derivatives as potential anticancer agents” (Bioorg Med Chem Lett, 2021)

Key:
MDA-MB-231 = assay: Antiproliferative activity against human MDA-MB-231 cells assessed as inhibition of cell proliferation measured after 48 hrs by MTT assay; type: functional, cell-based; conditions: MDA-MB-231, 48 h
HeLa [1] = assay: Antiproliferative activity against human HeLa cells assessed as inhibition of cell proliferation measured after 48 hrs by MTT assay; type: functional, cell-based
HT-29 = assay: Antiproliferative activity against human HT-29 cells assessed as inhibition of cell proliferation measured after 48 hrs by MTT assay; type: functional, cell-based; conditions: HT-29, 48 h
HCT-116 = assay: Antiproliferative activity against human HCT-116 cells assessed as inhibition of cell proliferation measured after 48 hrs by MTT assay; type: functional, cell-based; conditions: HCT-116, 48 h
HEK293 = assay: Cytotoxicity against HEK293 cells assessed as inhibition of cell proliferation measured after 48 hrs by MTT assay; type: cell-based; conditions: Homo sapiens, HEK293, 48 h
HeLa [2] = assay: Cell cycle arrest in human HeLa cells assessed as accumulation at G2/M phase measured after 24 hrs by flow cytometry analysis; type: functional, cell-based; conditions: dose 3-12 µM
HeLa [3] = assay: Cell cycle arrest in human HeLa cells assessed as accumulation at S phase at 3 uM measured after 24 hrs by flow cytometry analysis (reference value: 17.44 %); type: functional
HeLa [4] = assay: Cell cycle arrest in human HeLa cells assessed as accumulation at S phase at 12 uM measured after 24 hrs by flow cytometry analysis (reference value: 17.44 %); type: functional
HeLa [5] = assay: Cell cycle arrest in human HeLa cells assessed as accumulation at G2/M phase at 12 uM measured after 24 hrs by flow cytometry analysis (reference value: 15.22 %); type: functional
HeLa [6] = assay: Cell cycle arrest in human HeLa cells assessed as accumulation at G1/G0 phase at 6 uM measured after 24 hrs by flow cytometry analysis (reference value: 67.34 %); type: functional
HeLa [7] = assay: Cell cycle arrest in human HeLa cells assessed as accumulation at G2/M phase at 3 uM measured after 24 hrs by flow cytometry analysis (reference value: 15.22 %); type: functional
HeLa [8] = assay: Cell cycle arrest in human HeLa cells assessed as accumulation at G2/M phase at 6 uM measured after 24 hrs by flow cytometry analysis (reference value: 15.22 %); type: functional
HeLa [9] = assay: Cell cycle arrest in human HeLa cells assessed as accumulation at G1/G0 phase at 12 uM measured after 24 hrs by flow cytometry analysis (reference value: 67.34 %); type: functional
HeLa [10] = assay: Cell cycle arrest in human HeLa cells assessed as accumulation at G1/G0 phase at 3 uM measured after 24 hrs by flow cytometry analysis (reference value: 67.34 %); type: functional
HeLa [11] = assay: Cell cycle arrest in human HeLa cells assessed as accumulation at S phase at 6 uM measured after 24 hrs by flow cytometry analysis (reference value: 17.44 %); type: functional

SMILES	IC50 (MDA-MB-231) [µM]	IC50 (HeLa [1]) [µM]	IC50 (HT-29) [µM]	IC50 (HCT-116) [µM]	IC50 (HEK293) [µM]	also measured
CC1CCN(c2ccc(Nc3ncc4c(n3)N(C3CCCC3)CC(=O)N4C)nc2)CC1	> 30	> 30	11.3	> 30	–	–
CN1C(=O)CN(C2CCCC2)c2nc(Nc3ccc(N4CCOCC4)cn3)ncc21	> 30	> 30	28.4	23.6	–	–
CN1CCN(c2ccc(Nc3ncc4c(n3)N(C3CCCC3)CC(=O)N4)nc2)CC1	> 30	> 30	26.5	> 30	–	–
CN1CCN(c2ccc(Nc3ncc4c(n3)N(C3CCCC3)CC(=O)N4)cc2)CC1	26.1	21.3	5.22	12.2	> 30	–
COc1ccc(Nc2ncc3c(n2)N(C2CCCC2)CC(=O)N3)cc1	> 30	–	–	> 30	–	–
CCN1C(=O)CN(C2CCCC2)c2nc(Nc3ccc(N4CCCCC4)cn3)ncc21	28.2	17.6	22	14.5	> 30	–
CCN1C(=O)CN(C2CCCC2)c2nc(Nc3ccc(N4CCC(C)CC4)cn3)ncc21	> 30	> 30	> 30	19.1	–	–
O=C1CN(C2CCCC2)c2nc(Nc3ccc(N4CCOCC4)cn3)ncc2N1	> 30	> 30	22	25.3	–	–
CCN1C(=O)CN(C2CCCC2)c2nc(Nc3ccc(N4CCN(C)CC4)cn3)ncc21	24.1	29.1	7.84	16.4	> 30	–
CCN1C(=O)CN(C2CCCC2)c2nc(Nc3ccc(OC)cc3)ncc21	> 30	–	–	11	–	–
O=C1CN(Cc2ccccc2)c2nc(NCCc3ccccc3)ncc2N1	–	20.7	> 30	25.4	> 30	–
CC1CCN(c2ccc(Nc3ncc4c(n3)N(C3CCCC3)CC(=O)N4)nc2)CC1	> 30	> 30	> 30	> 30	–	–
CC1CCN(c2ccc(Nc3ncc4c(n3)N(C3CCCC3)CC(=O)N4C)cc2)CC1	> 30	> 30	> 30	25.3	–	–
CCN1C(=O)CN(C2CCCC2)c2nc(Nc3ccc(N4CCOCC4)cn3)ncc21	> 30	> 30	27.6	> 30	–	–
CN1C(=O)CN(C2CCCC2)c2nc(Nc3ccc(N4CCOCC4)cc3)ncc21	> 30	> 30	20.1	> 30	–	–
O=C1CN(C2CCCC2)c2nc(Nc3ccc(N4CCCCC4)cn3)ncc2N1	> 30	> 30	21.1	> 30	–	–
O=C1CN(C2CCCC2)c2nc(Nc3ccc(N4CCNCC4)cn3)ncc2N1	> 30	> 30	> 30	> 30	–	–
COc1ccc(Nc2ncc3c(n2)N(C2CCCC2)CC(=O)N3C)cc1	> 30	–	–	12.3	–	–

Stronger by IC50 (HCT-116), values ahead:

IC50 (MDA-MB-231) [µM]	IC50 (HeLa [1]) [µM]	IC50 (HT-29) [µM]	IC50 (HCT-116) [µM]	SMILES	IC50 (HEK293) [µM]	also measured
23.7	13.1	11.1	9.73	CN1CCN(c2ccc(Nc3ncc4c(n3)N(C3CCCC3)CC(=O)N4C)nc2)CC1	–	–
25.1	26	22.8	9.5	O=C1CN(C2CCCC2)c2nc(Nc3ccc(N4CCOCC4)cc3)ncc2N1	> 30	–
25	> 30	5.54	4.44	O=C1CN(C2CCCC2)c2nc(Nc3ccc(N4CCCCC4)cc3)ncc2N1	25.1	–
> 30	> 30	24.4	5.4	CCN1C(=O)CN(C2CCCC2)c2nc(Nc3ccc(N4CCC(C)CC4)cc3)ncc21	> 30	–
21.2	16.9	9.86	6.1	CN1C(=O)CN(C2CCCC2)c2nc(Nc3ccc(N4CCCCC4)cc3)ncc21	25.3	–
> 30	> 30	> 30	9.05	CCN1C(=O)CN(C2CCCC2)c2nc(Nc3ccc(N4CCOCC4)cc3)ncc21	–	–
29.3	> 30	12.5	3.89	CN1C(=O)CN(C2CCCC2)c2nc(Nc3ccc(N4CCCCC4)cn3)ncc21	> 30	–
10.3	6.75	7.56	3.29	CN1CCN(c2ccc(Nc3ncc4c(n3)N(C3CCCC3)CC(=O)N4C)cc2)CC1	12.4	Activity (HeLa [2]): Dose-dependent effect; Activity (HeLa [3]): 14.6%; Activity (HeLa [4]): 0%; Activity (HeLa [5]): 88.97%; Activity (HeLa [6]): 47.11%; Activity (HeLa [7]): 20.97%; Activity (HeLa [8]): 48.98%; Activity (HeLa [9]): 11.03%; Activity (HeLa [10]): 64.43%; Activity (HeLa [11]): 3.9%
26.2	28.3	10.3	7.96	CCN1C(=O)CN(C2CCCC2)c2nc(Nc3ccc(N4CCN(C)CC4)cc3)ncc21	> 30	–
6.21	13.3	3.56	7.11	CC(=O)c1c(C)c2cnc(Nc3ccc(N4CCNCC4)cn3)nc2n(C2CCCC2)c1=O [PALBOCICLIB]	–	–
> 30	> 30	> 30	5.47	CCN1C(=O)CN(C2CCCC2)c2nc(Nc3ccc(N4CCCCC4)cc3)ncc21	> 30	–
22.7	> 30	5.04	8.43	CC1CCN(c2ccc(Nc3ncc4c(n3)N(C3CCCC3)CC(=O)N4)cc2)CC1	–	–
